Measurements from ChEMBL document CHEMBL6127020, “Discovery of aminopiperidine based potent & novel topoisomerase inhibitor with broad spectrum anti-bacterial activity” (Bioorg Med Chem Lett, 2024).
Values after ≈ are worked out from the molar mass of the structure shown.

What was measured:
Escherichia coli = assay: Antibacterial activity against Escherichia coli ATCC 25922 assessed as inhibition of bacterial growth; assay type: functional
Staphylococcus aureus = assay: Antibacterial activity against Staphylococcus aureus ATCC 29213 assessed as inhibition of bacterial growth; assay type: functional
Cytochrome P450 3A4 = Cytochrome P450 3A4 (Homo sapiens, UniProt P08684); assay: Inhibition of CYP3A4 (unknown origin) at 10 uM; assay type: ADME
Chain of Cytochrome P450 3A4 (P08684 whole entry): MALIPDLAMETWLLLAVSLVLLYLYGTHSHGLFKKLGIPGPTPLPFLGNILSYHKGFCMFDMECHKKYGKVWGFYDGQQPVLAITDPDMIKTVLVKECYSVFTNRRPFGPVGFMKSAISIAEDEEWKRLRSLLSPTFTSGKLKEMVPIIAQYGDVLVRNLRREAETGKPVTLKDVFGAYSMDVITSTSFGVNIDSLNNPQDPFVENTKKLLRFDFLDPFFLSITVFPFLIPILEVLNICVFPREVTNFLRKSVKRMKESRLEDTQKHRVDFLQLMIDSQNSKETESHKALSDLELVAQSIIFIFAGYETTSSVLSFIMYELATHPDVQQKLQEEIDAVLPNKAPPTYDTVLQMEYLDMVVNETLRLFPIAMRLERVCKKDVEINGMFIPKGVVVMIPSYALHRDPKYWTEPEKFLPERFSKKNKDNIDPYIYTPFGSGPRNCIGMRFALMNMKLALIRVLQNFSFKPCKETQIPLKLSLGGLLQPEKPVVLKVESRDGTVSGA

Cytochrome P450 1A2 = target: T1, Cytochrome P450 1A2 (Homo sapiens, UniProt P05177); assay: Inhibition of CYP1A2 (unknown origin) at 10 uM; assay type: ADME
T1 sequence (P05177 whole entry): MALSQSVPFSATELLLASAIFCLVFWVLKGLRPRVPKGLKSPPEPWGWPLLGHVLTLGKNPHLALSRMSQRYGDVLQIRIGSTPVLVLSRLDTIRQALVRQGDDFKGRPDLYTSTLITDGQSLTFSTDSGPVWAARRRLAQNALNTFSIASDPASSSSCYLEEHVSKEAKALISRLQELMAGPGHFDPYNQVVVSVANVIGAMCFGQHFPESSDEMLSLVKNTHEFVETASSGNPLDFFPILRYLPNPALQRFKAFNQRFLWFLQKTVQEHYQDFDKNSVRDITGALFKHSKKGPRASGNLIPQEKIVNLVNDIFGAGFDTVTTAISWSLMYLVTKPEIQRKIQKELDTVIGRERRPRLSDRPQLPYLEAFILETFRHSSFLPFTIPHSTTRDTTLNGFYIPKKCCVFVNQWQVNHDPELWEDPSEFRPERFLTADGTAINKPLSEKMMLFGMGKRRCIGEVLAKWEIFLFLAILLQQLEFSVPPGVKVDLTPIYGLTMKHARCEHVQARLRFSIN

Cytochrome P450 2D6 = Cytochrome P450 2D6 (Homo sapiens, UniProt P10635); assay: Inhibition of CYP2D6 (unknown origin) at 10 uM; assay type: ADME
Chain of Cytochrome P450 2D6 (P10635 whole entry): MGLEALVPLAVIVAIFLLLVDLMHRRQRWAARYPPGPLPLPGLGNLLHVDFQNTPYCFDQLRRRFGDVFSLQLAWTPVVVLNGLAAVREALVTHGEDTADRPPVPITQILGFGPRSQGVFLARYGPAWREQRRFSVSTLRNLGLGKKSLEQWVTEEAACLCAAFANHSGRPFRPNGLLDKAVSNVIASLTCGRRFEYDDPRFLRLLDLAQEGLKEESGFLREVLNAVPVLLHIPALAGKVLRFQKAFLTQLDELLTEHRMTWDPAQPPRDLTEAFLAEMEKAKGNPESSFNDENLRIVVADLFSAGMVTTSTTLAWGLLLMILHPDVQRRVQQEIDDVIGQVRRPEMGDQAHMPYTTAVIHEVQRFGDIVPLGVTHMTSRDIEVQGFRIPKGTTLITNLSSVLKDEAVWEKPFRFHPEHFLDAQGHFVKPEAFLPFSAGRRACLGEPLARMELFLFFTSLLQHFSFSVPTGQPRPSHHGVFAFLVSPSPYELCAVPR

Cytochrome P450 2C8 = target: T2, Cytochrome P450 2C8 (Homo sapiens, UniProt P10632); assay: Inhibition of CYP2C8 (unknown origin) at 10 uM; assay type: ADME
T2 sequence (P10632 whole entry): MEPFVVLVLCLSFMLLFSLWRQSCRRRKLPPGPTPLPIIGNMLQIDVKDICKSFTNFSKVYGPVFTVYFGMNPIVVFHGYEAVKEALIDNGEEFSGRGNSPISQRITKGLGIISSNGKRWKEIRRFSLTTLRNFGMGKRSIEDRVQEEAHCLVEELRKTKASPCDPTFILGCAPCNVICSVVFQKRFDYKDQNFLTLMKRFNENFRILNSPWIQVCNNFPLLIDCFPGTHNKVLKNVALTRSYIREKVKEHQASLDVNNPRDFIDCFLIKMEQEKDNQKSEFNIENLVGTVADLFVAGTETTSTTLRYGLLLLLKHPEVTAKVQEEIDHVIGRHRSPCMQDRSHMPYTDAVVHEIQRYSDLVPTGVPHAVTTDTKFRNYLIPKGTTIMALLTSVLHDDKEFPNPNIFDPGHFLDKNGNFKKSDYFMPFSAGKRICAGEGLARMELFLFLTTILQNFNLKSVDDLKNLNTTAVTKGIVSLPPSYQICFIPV

Topoisomerase IV = Topoisomerase IV (Staphylococcus aureus, UniProt P0C1S7+P0C1U9); assay: Inhibition of Staphylococcus aureus DNA topoisomerase 4; assay type: protein-complex assay
Chain of Topoisomerase IV (P0C1U9 whole entry): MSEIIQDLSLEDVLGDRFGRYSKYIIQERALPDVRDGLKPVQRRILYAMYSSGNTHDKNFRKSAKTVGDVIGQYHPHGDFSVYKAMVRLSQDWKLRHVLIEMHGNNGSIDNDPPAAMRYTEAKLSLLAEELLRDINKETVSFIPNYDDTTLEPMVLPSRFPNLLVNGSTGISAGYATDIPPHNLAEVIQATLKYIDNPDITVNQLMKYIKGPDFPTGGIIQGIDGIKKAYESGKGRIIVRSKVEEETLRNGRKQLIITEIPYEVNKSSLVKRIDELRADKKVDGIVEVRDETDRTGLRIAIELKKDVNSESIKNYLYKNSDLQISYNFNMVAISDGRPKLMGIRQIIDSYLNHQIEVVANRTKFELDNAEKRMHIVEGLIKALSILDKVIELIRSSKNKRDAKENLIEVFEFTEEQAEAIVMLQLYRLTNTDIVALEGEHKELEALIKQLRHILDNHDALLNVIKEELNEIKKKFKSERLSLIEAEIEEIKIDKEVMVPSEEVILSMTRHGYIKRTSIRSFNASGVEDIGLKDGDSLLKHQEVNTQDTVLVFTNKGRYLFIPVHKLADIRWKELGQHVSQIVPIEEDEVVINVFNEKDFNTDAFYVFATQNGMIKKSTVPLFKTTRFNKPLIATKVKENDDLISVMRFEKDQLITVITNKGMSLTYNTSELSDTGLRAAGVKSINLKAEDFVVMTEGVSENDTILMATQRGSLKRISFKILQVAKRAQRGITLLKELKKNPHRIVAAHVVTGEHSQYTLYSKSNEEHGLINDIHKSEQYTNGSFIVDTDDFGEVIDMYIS
Chain of Topoisomerase IV (P0C1S7 whole entry): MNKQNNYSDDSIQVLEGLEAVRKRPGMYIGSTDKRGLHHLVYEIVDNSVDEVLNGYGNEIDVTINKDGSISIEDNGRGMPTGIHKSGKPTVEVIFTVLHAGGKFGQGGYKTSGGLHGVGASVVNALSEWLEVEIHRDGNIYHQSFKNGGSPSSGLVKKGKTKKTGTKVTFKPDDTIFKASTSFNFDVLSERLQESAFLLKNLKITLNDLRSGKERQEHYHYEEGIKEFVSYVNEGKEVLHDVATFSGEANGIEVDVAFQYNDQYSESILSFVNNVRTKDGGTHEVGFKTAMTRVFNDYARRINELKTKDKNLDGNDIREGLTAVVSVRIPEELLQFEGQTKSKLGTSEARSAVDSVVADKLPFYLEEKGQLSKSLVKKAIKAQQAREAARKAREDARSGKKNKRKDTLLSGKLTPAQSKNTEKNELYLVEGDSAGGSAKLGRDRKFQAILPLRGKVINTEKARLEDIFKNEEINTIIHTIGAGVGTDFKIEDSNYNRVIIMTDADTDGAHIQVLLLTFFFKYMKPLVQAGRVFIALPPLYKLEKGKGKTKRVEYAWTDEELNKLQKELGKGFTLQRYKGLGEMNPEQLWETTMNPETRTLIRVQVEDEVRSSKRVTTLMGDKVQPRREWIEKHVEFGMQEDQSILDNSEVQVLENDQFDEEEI

Cytochrome P450 2C19 = Cytochrome P450 2C19 (Homo sapiens, UniProt P33261); assay: Inhibition of CYP2C19 (unknown origin) at 10 uM; assay type: ADME
Chain of Cytochrome P450 2C19 (P33261 whole entry): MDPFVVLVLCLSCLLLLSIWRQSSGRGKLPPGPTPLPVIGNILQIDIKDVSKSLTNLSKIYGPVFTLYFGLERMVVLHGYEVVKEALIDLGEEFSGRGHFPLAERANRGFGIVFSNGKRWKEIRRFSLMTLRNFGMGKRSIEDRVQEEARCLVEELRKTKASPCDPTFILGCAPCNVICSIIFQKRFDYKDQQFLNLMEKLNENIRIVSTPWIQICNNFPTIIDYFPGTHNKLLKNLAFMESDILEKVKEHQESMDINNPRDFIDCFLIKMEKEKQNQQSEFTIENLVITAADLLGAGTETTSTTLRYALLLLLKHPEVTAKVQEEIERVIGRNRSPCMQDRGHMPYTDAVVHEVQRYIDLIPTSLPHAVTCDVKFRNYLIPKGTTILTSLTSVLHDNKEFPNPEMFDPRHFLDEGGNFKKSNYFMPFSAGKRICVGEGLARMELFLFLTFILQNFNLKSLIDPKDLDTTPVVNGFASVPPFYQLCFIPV

DNA gyrase = DNA gyrase (Staphylococcus aureus, UniProt P0A0K8+P20831); assay: Inhibition of Staphylococcus aureus DNA gyrase; assay type: protein-complex assay
Chain of DNA gyrase (P0A0K8 whole entry): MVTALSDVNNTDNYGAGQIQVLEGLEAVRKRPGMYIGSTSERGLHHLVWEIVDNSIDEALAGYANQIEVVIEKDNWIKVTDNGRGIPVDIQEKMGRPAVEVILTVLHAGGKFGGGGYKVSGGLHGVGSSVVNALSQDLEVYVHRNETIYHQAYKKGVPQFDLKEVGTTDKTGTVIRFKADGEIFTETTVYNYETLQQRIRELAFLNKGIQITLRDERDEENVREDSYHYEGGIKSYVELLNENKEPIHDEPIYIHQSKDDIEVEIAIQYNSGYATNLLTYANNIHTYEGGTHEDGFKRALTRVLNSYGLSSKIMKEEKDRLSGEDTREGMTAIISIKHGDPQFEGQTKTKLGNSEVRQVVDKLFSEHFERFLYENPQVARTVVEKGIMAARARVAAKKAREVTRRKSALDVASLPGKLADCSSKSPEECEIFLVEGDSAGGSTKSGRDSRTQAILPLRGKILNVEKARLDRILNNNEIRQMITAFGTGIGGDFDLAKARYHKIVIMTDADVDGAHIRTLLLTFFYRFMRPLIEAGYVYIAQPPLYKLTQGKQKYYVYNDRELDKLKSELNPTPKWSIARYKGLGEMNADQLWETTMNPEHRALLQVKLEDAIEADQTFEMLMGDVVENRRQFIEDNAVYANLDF
Chain of DNA gyrase (P20831 whole entry): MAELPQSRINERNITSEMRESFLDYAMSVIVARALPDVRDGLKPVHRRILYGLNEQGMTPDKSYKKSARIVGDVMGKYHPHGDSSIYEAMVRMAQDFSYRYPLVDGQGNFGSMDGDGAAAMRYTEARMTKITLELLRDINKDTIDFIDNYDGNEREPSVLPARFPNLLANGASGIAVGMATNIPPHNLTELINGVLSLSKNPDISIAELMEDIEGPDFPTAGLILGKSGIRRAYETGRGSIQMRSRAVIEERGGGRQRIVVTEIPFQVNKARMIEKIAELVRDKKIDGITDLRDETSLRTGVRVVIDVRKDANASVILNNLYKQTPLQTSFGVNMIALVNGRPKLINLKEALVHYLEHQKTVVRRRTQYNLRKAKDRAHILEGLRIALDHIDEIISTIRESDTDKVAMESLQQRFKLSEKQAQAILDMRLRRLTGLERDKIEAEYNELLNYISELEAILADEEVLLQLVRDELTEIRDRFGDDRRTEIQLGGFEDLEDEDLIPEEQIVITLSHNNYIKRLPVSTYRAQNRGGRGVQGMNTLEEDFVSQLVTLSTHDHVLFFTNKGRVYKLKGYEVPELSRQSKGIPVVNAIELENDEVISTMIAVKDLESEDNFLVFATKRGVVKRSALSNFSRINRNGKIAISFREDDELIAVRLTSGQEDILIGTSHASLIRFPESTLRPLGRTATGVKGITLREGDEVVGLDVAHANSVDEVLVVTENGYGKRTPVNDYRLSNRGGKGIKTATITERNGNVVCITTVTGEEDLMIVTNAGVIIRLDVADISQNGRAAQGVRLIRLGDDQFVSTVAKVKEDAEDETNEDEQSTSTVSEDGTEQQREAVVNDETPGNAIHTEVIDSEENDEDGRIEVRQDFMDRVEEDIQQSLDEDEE

[1] = Tmax in C57 mouse at 3 mg/kg,po administration; assay type: ADME, organism-based; conditions: in vivo
[2] = AUC (0 to t) in C57 mouse at 3 mg/kg,po administration; assay type: ADME, organism-based; conditions: in vivo
[3] = MRT in C57 mouse at 1 mg/kg,iv administration; assay type: ADME, organism-based; conditions: in vivo
Pseudomonas aeruginosa = assay: Antibacterial activity against Pseudomonas aeruginosa assessed as inhibition of bacterial growth; assay type: functional
[4] = C0 in C57 mouse at 1 mg/kg,iv administration; assay type: ADME, organism-based; conditions: in vivo
[5] = AUC (0 to t) in C57 mouse at 1 mg/kg,iv administration; assay type: ADME, organism-based; conditions: in vivo
[6] = Half life in C57 mouse at 1 mg/kg,iv administration; assay type: ADME, organism-based; conditions: in vivo
[7] = Volume of distribution at steady state in C57 mouse at 1 mg/kg,iv administration; assay type: ADME, organism-based; conditions: in vivo, read-out: Vdss
[8] = Bioavailability in C57 mouse at 1 mg/kg,iv administration; assay type: ADME, organism-based; conditions: in vivo
[9] = Solubility of compound in PBS; assay type: physicochemical; conditions: buffer
[10] = Clearance in C57 mouse at 1 mg/kg,iv administration; assay type: ADME, organism-based; conditions: in vivo
[11] = Plasma protein binding in human; assay type: ADME, cell-free; conditions: read-out: PPB (converted)
Acinetobacter baumannii = assay: Antibacterial activity against Acinetobacter baumannii assessed as inhibition of bacterial growth; assay type: functional
[12] = Cmax in C57 mouse at 3 mg/kg,po administration; assay type: ADME, organism-based; conditions: in vivo
[13] = Aqueous solubility of compound; assay type: physicochemical; conditions: buffer

Row | SMILES | MIC (Escherichia coli) [µg/mL] | MIC (Staphylococcus aureus) [µg/mL] | other results
1 | CCOC(=O)C1COc2ccc(CNC3CCN(CCn4c(=O)ccc5ccc(C#N)cc54)CC3)cc2O1 (stereo not drawn) | > 16 | > 16 | 
2 | c1ccc2c(c1)Sc1ccccc1N2CCN1CCC(NCc2cc3c(cn2)OCCC3)CC1 | > 16 | 16 (≈ 33.9 µM) | 
3 | N#Cc1cnn2ccc(=O)n(CCN3CCC(NCc4cc5c(cn4)OCCC5)CC3)c12 | 2 (≈ 4.61 µM) | 2 (≈ 4.61 µM) | 
4 | N#Cc1ccc2ccc(=O)n(CCN3CCC(NCc4ccc5c(c4)NC(=O)CO5)CC3)c2c1 |  |  | inhibition (INH) (Cytochrome P450 3A4): Not Active; inhibition (INH) (Cytochrome P450 1A2): Not Active; inhibition (INH) (Cytochrome P450 2D6): Not Active; inhibition (INH) (Cytochrome P450 2C8): Not Active; IC50 (Topoisomerase IV): 1300 nM; inhibition (INH) (Cytochrome P450 2C19): Not Active; IC50 (DNA gyrase): 3.4 nM
5 | CN1C(=O)C(C)(C)Oc2ccc(CNC3CCN(CCn4c(=O)ccc5ccc(C#N)cc54)CC3)cc21 | > 16 | > 16 | 
6 | N#Cc1ccc2ccc(=O)n(CCN3CCC(NCc4ccc5c(c4)NC(=O)CS5(=O)=O)CC3)c2c1 | > 16 | > 16 | 
7 | O=c1ccc2ncc(=O)n3c2n1C[C@H]3CN1CCC(NCc2cc3c(cn2)OCCC3)CC1 [GEPOTIDACIN] | 0.5 (≈ 1.11 µM) | 0.25 (≈ 0.557 µM) | Tmax [1]: 2 h; AUC(0-t) [2]: 176 ng·h/mL; MRT [3]: 1.4 h; MIC90 (Pseudomonas aeruginosa): 32 µg/mL (≈ 71.3 µM); C0 [4]: 724 ng/mL; AUC(0-t) [5]: 244 ng·h/mL; half-life [6]: 1.7 h; Vd [7]: 5 L/kg; bioavailability [8]: 24%; solubility [9]: 663 µg/mL (≈ 1480 µM); clearance [10]: 60 mL/min/kg; fraction unbound [11]: 0.67; MIC90 (Acinetobacter baumannii): 64 µg/mL (≈ 143 µM); Cmax [12]: 90 ng/mL; solubility [13]: 580 µg/mL (≈ 1290 µM)
8 | c1ccc2c(c1)c1ccccc1n2CCN1CCC(NCc2cc3c(cn2)OCCC3)CC1 | > 16 | > 16 | 
9 | O=c1ccc2ccccc2n1CCN1CCC(NCc2cc3c(cn2)OCCC3)CC1 | 16 (≈ 38.2 µM) | 1 (≈ 2.39 µM) | 
10 | CN1C(=O)COc2ccc(CNC3CCN(CCn4c(=O)ccc5ccc(C#N)cc54)CC3)cc21 | 16 (≈ 33.9 µM) | 8 (≈ 17 µM) | 
11 | O=c1ccc2ccc(C(F)(F)F)cc2n1CCN1CCC(NCc2cc3c(cn2)OCCC3)CC1 | 2 (≈ 4.11 µM) | 0.125 (≈ 0.257 µM) | 
12 | O=c1c2ccccc2c2ccccc2n1CCN1CCC(NCc2cc3c(cn2)OCCC3)CC1 | > 16 | 1 (≈ 2.13 µM) | 
13 | O=c1c2ccccc2c2ncccc2n1CCN1CCC(NCc2cc3c(cn2)OCCC3)CC1 | > 16 | 2 (≈ 4.26 µM) | 
14 | c1ccc2c(c1)-c1ccccc1C2CCN1CCC(NCc2cc3c(cn2)OCCC3)CC1 | > 16 | > 16 | 
15 | CCOC(=O)C1COc2cc(CNC3CCN(CCn4c(=O)ccc5ccc(C#N)cc54)CC3)ccc2O1 (stereo not drawn) | > 16 | > 16 | 
16 | O=S1(=O)c2ccccc2N(CCN2CCC(NCc3cc4c(cn3)OCCC4)CC2)c2ccccc21 | > 16 | > 16 | 
17 | N#Cc1ccc2ccc(=O)n(CCN3CCC(NCc4ccc5c(c4)OCC(C(=O)O)O5)CC3)c2c1 (stereo not drawn) | > 16 | > 16 | 
18 | N#Cc1ccc2ccc(=O)n(CCN3CCC(NCc4ccc5c(c4)CCCC5)CC3)c2c1 | 1 (≈ 2.27 µM) | < 0.125 | 
19 | N#Cc1ccc2ccc(=O)n(CCN3CCC(NCc4ccc5c(c4)OCC(=O)N5)CC3)c2c1 | > 16 | > 16 | 
20 | O=S1(=O)C=Cc2ccccc2N1CCN1CCC(NCc2cc3c(cn2)OCCC3)CC1 | > 16 | > 16 | 
21 | N#Cc1ccc2ccc(=O)n(CCN3CCC(NCc4ccc5c(c4)OCCO5)CC3)c2c1 |  | < 0.125 | inhibition (INH) (Cytochrome P450 3A4): Not Active; inhibition (INH) (Cytochrome P450 1A2): Not Active; inhibition (INH) (Cytochrome P450 2D6): Not Active; inhibition (INH) (Cytochrome P450 2C8): Not Active; IC50 (Topoisomerase IV): 900 nM; inhibition (INH) (Cytochrome P450 2C19): Not Active; IC50 (DNA gyrase): 44 nM
22 | N#Cc1ccc2ccc(=O)n(CCN3CCC(NCc4cc5c(cn4)OCCC5)CC3)c2c1 | 0.5 (≈ 1.13 µM) | 0.125 (≈ 0.282 µM) | 
23 | O=c1ccn2nccc2n1CCN1CCC(NCc2cc3c(cn2)OCCC3)CC1 | 8 (≈ 19.6 µM) | 2 (≈ 4.9 µM) | 
24 | N#Cc1ccc2ccc(=O)n(CCN3CCC(NCc4ccc5c(c4)OC(C(=O)O)CO5)CC3)c2c1 (stereo not drawn) | > 16 | > 16 | 
25 | N#Cc1ccc2ccc(=O)n(CCN3CCC(NCc4ccc5c(c4)CCCO5)CC3)c2c1 | 0.25 (≈ 0.565 µM) | < 0.125 | 
26 | O=S1(=O)c2ccccc2-c2ccccc2N1CCN1CCC(NCc2cc3c(cn2)OCCC3)CC1 | > 16 | > 16 | 
